Source: patent US20170001990A1 (Genentech, Inc., priority 2014, published 2017)
Where “and” joins values, the source holds several entries; their conditions need not be identical. Equal entries are not always repeated.

These compounds were tested against Human recombinant carboxy-terminal his-tagged LDHA (amino acids 2-332) (Homo sapiens, UniProt P00338) (assay: LDHA enzyme inhibition assay (NADH fluorescence)). Settings: LDHA IC50 (μM), 1 nM LDHA, NADH and pyruvate, stereochemistry of tested sample given.

Q: `CC(Oc1cccc(C2(c3ccsc3)CC(=O)C(Sc3ccccc3Cl)C(=O)N2)n1)C1CC1` (single isomer, unassigned) [Example 207, 3-(2-chlorophenyl)sulfanyl-6-[6-(1-cyclopropylethoxy)-2-pyridyl]-6-(3-thienyl) piperidine-2,4-dione] was tested. Which IC50 did it give?
A: The IC50 was 0.02 µM.

Q: `O=C1CC(c2ccsc2)(c2ccccc2O)NC(=O)C1Sc1ccccc1Cl` (stereo not drawn) [Example 36, 3-(2-chlorophenyl)sulfanyl-6-(2-hydroxyphenyl)-6-(3-thienyl)piperidine-2,4-dione] was tested. Which IC50 did it give?
A: Its IC50 is 0.021 µM and 0.008 µM and 0.025 µM.

Q: With `CCC1(COc2cccc([C@@]3(c4ccsc4)CC(=O)C(Sc4ccccc4Cl)C(=O)N3)n2)COC1` (stereo partly drawn) [Example 248] as the compound, how does the IC50 read?
A: Its IC50 is 0.005 µM.

Q: Which IC50 does the source give for `CN(c1cccc(C(F)(F)F)c1)c1cccc(C2(c3ccsc3)CC(=O)C(Sc3ccccc3Cl)C(=O)N2)n1` (stereo not drawn) [Example 275, 3-((2-chlorophenyl)thio)-6-(6-(methyl(3-(trifluoromethyl)phenyl)amino)pyridin-2-yl)-6-(thiophen-3-yl)piperidine-2,4-dione] here?
A: The IC50 was 0.233 µM.

Q: `CC(CC1CC1)Oc1cccc(C2(c3ccsc3)CC(=O)C(Sc3ccccc3Cl)C(=O)N2)n1` (single isomer, unassigned) [Example 251, 3-(2-chlorophenyl)sulfanyl-6-[6-(2-cyclopropyl-1-methyl-ethoxy)-2-pyridyl]-6-(3-thienyl) piperidine-2,4-dione] was tested. Which IC50 did it give?
A: The IC50 was 0.019 µM.

Q: How did the IC50 turn out when `O=C1CC(c2ccsc2)(c2cccc(Oc3ccc4c(c3)CCC4)n2)NC(=O)C1Sc1ccccc1Cl` (stereo not drawn) [Example 60, 5-((2-chlorophenyl)thio)-6′-((2,3-dihydro-1H-inden-5-yl)oxy)-4-hydroxy-2-(thiophen-3-yl)-2,3-dihydro-[2,2′-bipyridin]-6(1H)-one] was run?
A: The IC50 was 0.009 µM.

Q: With `C[C@H](Nc1cccc(C2(c3ccsc3)CC(=O)C(Sc3ccccc3Cl)C(=O)N2)n1)c1ccc(F)cc1` (stereo in doubt) [Example 303, 3-((2-chlorophenyl)thio)-6-(6-((1-(4-fluorophenyl)ethyl)amino)pyridin-2-yl)-6-(thiophen-3-yl) piperidine-2,4-dione] as the compound, how does the IC50 read?
A: Its IC50 is 0.434 µM.

Q: With `COCCCOc1cccc(C2(c3ccsc3)CC(=O)C(Sc3ccccc3Cl)C(=O)N2)n1` (single isomer, unassigned) [Example 237, 3-(2-chlorophenyl)sulfanyl-6-[6-(3-methoxypropoxy)-2-pyridyl]-6-(3-thienyl) piperidine-2,4-dione] as the compound, how does the IC50 read?
A: The IC50 was 0.094 µM.

Q: For `CC(Oc1cccc(C2(c3ccsc3)CC(=O)C(Sc3ccccc3Cl)C(=O)N2)n1)C(F)(F)F` (stereo not drawn) [Example 231, 3-(2-chlorophenyl)sulfanyl-6-(3-thienyl)-6-[6-(2,2,2-trifluoro-1-methyl-ethoxy)-2-pyridyl]piperidine-2,4-dione], which IC50 is on record?
A: The IC50 was 0.009 µM.

Q: For `O=C1CC(c2ccsc2)(c2cccc(OCCC3CC3)n2)NC(=O)C1Sc1ccccc1Cl` (stereo not drawn) [Example 81, 3-((2-chlorophenyl)thio)-6-(6-(2-cyclopropyl-ethoxy)pyridin-2-yl)-6-(thiophen-3-yl)piperidine-2,4-dione], which IC50 is on record?
A: The IC50 was 0.229 µM.

Q: For `O=C1CC(c2ccsc2)(c2cccc(-c3ccnc(N4CCOCC4)c3)n2)NC(=O)C1Sc1ccccc1Cl` (stereo not drawn) [Example 261, 3-((2-chlorophenyl)thio)-6-(2′-morpholino-[2,4′-bipyridin]-6-yl)-6-(thiophen-3-yl)piperidine-2,4-dione], which IC50 is on record?
A: Its IC50 is 0.039 µM.

Q: `CCC(Nc1cccc(C2(c3ccsc3)CC(=O)C(Sc3ccccc3Cl)C(=O)N2)n1)c1ccc(F)cc1` (stereo not drawn) [Example 304, 3-((2-chlorophenyl)thio)-6-(6-((1-(4-fluoro-phenyl)propyl)amino)pyridin-2-yl)-6-(thiophen-3-yl)piperidine-2,4-dione] was tested. Which IC50 did it give?
A: Its IC50 is 0.021 µM.

Q: With `O=C1CC(c2ccc(N3CCOCC3)cc2)(c2cccc(Br)n2)NC(=O)C1Sc1ccccc1Cl` (stereo not drawn) [Example 38, 6-(6-bromopyridin-2-yl)-3-((2-chlorophenyl)thio)-6-(4-morpholinophenyl)piperidine-2,4-dione] as the compound, how does the IC50 read?
A: The IC50 was 0.004 µM.

Q: How did the IC50 turn out when `O=C1C[C@](c2ccsc2)(c2cccc(Oc3ccc(Br)cc3Cl)n2)NC(=O)C1Sc1ccccc1Cl` (stereo partly drawn) [Example 327, (6S)-6-[6-(4-bromo-2-chloro-phenoxy)-2-pyridyl]-3-(2-chlorophenyl) sulfanyl-6-(3-thienyl) piperidine-2,4-dione] was run?
A: The IC50 was 0.035 µM.

Q: Which IC50 does the source give for `CN(c1ccc(Cl)cc1)c1cccc(C2(c3ccsc3)CC(=O)C(Sc3ccccc3Cl)C(=O)N2)n1` (stereo not drawn) [Example 279, 6-(6-((4-chlorophenyl) (methyl)amino)pyridin-2-yl)-3-((2-chlorophenyl)thio)-6-(thiophen-3-yl) piperidine-2,4-dione] here?
A: The IC50 was 0.272 µM.

Q: For `O=C1CC(c2ccsc2)(c2cccc(Cc3ccc(F)c(F)c3)n2)NC(=O)C1Sc1ccccc1Cl` (single isomer, unassigned) [Example 282, 3-((2-chlorophenyl)thio)-6-(6-(3,4-difluorobenzyl)pyridin-2-yl)-6-(thiophen-3-yl)piperidine-2,4-dione], which IC50 is on record?
A: The IC50 was 0.012 µM.

Q: For `O=C1CC(c2ccsc2)(c2ccc(N3CCOCC3)c(Br)n2)NC(=O)C1Sc1ccccc1Cl` (stereo not drawn) [Example 25, 6-(6-bromo-5-morpholino-2-pyridyl)-3-(2-chlorophenyl)sulfanyl-6-(3-thienyl)piperidine-2,4-dione], which IC50 is on record?
A: Its IC50 is 0.023 µM.

Q: How did the IC50 turn out when `CC/C=C/COc1cccc(C2(c3ccsc3)CC(=O)C(Sc3ccccc3Cl)C(=O)N2)n1` (stereo not drawn) [Example 250, 3-(2-chlorophenyl)sulfanyl-6-(6-pent-2-enoxy-2-pyridyl)-6-(3-thienyl) piperidine-2,4-dione] was run?
A: Its IC50 is 0.036 µM.

Q: With `O=C1CC(c2ccsc2)(c2ccc(N3CCOCC3)c(Nc3ccc(F)cc3)n2)NC(=O)C1Sc1ccccc1Cl` (stereo not drawn) [Example 26, 3-(2-chlorophenyl)sulfanyl-6-[6-(4-fluoroanilino)-5-morpholino-2-pyridyl]-6-(3-thienyl)piperidine-2,4-dione] as the compound, how does the IC50 read?
A: The IC50 was 0.038 µM.

Q: For `O=C1CC(c2ccsc2)(c2cccc(Oc3cccc4cnccc34)n2)NC(=O)C1Sc1ccccc1Cl` (stereo not drawn) [Example 90, 3-((2-chlorophenyl)thio)-6-(6-(isoquinolin-5-yloxy)pyridin-2-yl)-6-(thiophen-3-yl)piperidine-2,4-dione], which IC50 is on record?
A: Its IC50 is 0.013 µM.

Q: Which IC50 does the source give for `O=C1CC(c2ccc(N3CCOCC3)cc2)(c2cccc(Oc3ccc(F)c(F)c3)n2)NC(=O)C1Sc1ccccc1Cl` (stereo not drawn) [Example 40, 3-(2-chlorophenyl)sulfanyl-6-[6-(3,4-difluorophenoxy)-2-pyridyl]6-(4-morpholinophenyl)piperidine-2,4-dione] here?
A: Its IC50 is 0.036 µM.

Q: Which IC50 does the source give for `O=C1CC(c2ccsc2)(c2cccc(OCC(F)F)n2)NC(=O)C1Sc1ccccc1Cl` (single isomer, unassigned) [Example 254, 3-(2-chlorophenyl)sulfanyl-6-[6-(2,2-difluoroethoxy)-2-pyridyl]-6-(3-thienyl) piperidine-2,4-dione] here?
A: The IC50 was 0.047 µM.

Q: With `O=C1CC(c2ccsc2)(c2cccc(OC3CCCCC3)n2)NC(=O)C1Sc1ccccc1Cl` (single isomer, unassigned) [Example 205, 3-(2-chlorophenyl)sulfanyl-6-[6-(cyclohexoxy)-2-pyridyl]-6-(3-thienyl) piperidine-2,4-dione] as the compound, how does the IC50 read?
A: Its IC50 is 0.058 µM.

Q: For `O=C1CC(c2ccsc2)(c2cccc(Oc3cccc(C(F)(F)F)c3)n2)NC(=O)C1Sc1ccccc1Cl` (stereo not drawn) [Example 140, 3-(2-chlorophenyl)sulfanyl-6-(3-thienyl)-6-[6-[3-(trifluoromethyl)phenoxy]-2-pyridyl]piperidine-2,4-dione], which IC50 is on record?
A: Its IC50 is 0.012 µM.

Q: For `COCC(C)Oc1cccc(C2(c3ccsc3)CC(=O)C(Sc3ccccc3Cl)C(=O)N2)n1` (stereo not drawn) [Example 246, 3-(2-chlorophenyl)sulfanyl-6-[6-(2-methoxy-1-methyl-ethoxy)-2-pyridyl]-6-(3-thienyl)piperidine-2,4-dione], which IC50 is on record?
A: The IC50 was 0.01 µM.

Q: For `O=C1CC(c2ccsc2)(c2cccc(OCC3CC(F)(F)C3)n2)NC(=O)C1Sc1ccccc1Cl` (single isomer, unassigned) [Example 196, 3-(2-chlorophenyl)sulfanyl-6-[6-[(3,3-difluorocyclo-butyl)methoxy]-2-pyridyl]-6-(3-thienyl)piperidine-2,4-dione], which IC50 is on record?
A: Its IC50 is 0.036 µM.

Q: How did the IC50 turn out when `O=C1CC(c2ccsc2)(c2cccc(OCC3COC3)n2)NC(=O)C1Sc1ccccc1Cl` (single isomer, unassigned) [Example 236, 3-(2-chlorophenyl)sulfanyl-6-[6-(oxetan-3-ylmethoxy)-2-pyridyl]-6-(3-thienyl) piperidine-2,4-dione] was run?
A: Its IC50 is 0.025 µM.

Q: For `O=C1CC(c2ccsc2)(c2cccc(NCCC3CC3)n2)NC(=O)C1Sc1ccccc1Cl` (stereo not drawn) [Example 138, 3-(2-chlorophenyl)sulfanyl-6-[6-(2-cyclopropyl-ethylamino)-2-pyridyl]-6-(3-thienyl)piperidine-2,4-dione], which IC50 is on record?
A: Its IC50 is 0.025 µM.

Q: With `O=C1CC(c2ccsc2)(c2cccc(OC3CCCCC3)n2)NC(=O)C1Sc1ccccc1Cl` (single isomer, unassigned) [Example 181, 3-(2-chlorophenyl)sulfanyl-6-[6-(cyclohexoxy)-2-pyridyl]-6-(3-thienyl) piperidine-2,4-dione] as the compound, how does the IC50 read?
A: Its IC50 is 0.006 µM.

Q: `O=C1CC(c2ccsc2)(c2cccc(Sc3ccc(F)cc3)n2)NC(=O)C1Sc1ccccc1Cl` (single isomer, unassigned) [Example 160, 3-(2-chlorophenyl)sulfanyl-6-[6-(4-fluorophenyl)sulfanyl-2-pyridyl]-6-(3-thienyl)piperidine-2,4-dione] was tested. Which IC50 did it give?
A: Its IC50 is 0.008 µM.

Q: Which IC50 does the source give for `O=C1CC(c2ccsc2)(c2cccc(OC3CCC(O)C3)n2)NC(=O)C1Sc1ccccc1Cl` (single isomer, unassigned) [Example 104, 3-((2-chlorophenyl)thio)-6-(6-((3-hydroxycyclo-pentyl)oxy)pyridin-2-yl)-6-(thiophen-3-yl) piperidine-2,4-dione] here?
A: The IC50 was 0.118 µM.

Q: How did the IC50 turn out when `O=C1CCC(COc2cccc(C3(c4ccsc4)CC(=O)C(Sc4ccccc4Cl)C(=O)N3)n2)O1` (single isomer, unassigned) [Example 192, 3-(2-chlorophenyl)sulfanyl-6-[6-[(5-oxotetrahydrofuran-2-yl)methoxy]-2-pyridyl]-6-(3-thienyl)piperidine-2,4-dione] was run?
A: Its IC50 is 0.232 µM.

Q: How did the IC50 turn out when `O=C1CC(c2ccsc2)(c2cccc(Nc3cccc(CO)c3)n2)NC(=O)C1Sc1ccccc1Cl` (stereo not drawn) [Example 290] was run?
A: The IC50 was 0.017 µM.
